According to US9532982B2, “Pharmaceutical combination comprising a phosphatidylinositol 3-kinase inhibitor and/an aromatase inhibitor” (Novartis AG, priority 2012, dated 2017):

Tests used:
[1] = test system: MCF7/Aro human breast carcinoma cells; experiment: Δ4A induced MCF7/Aro cell proliferation (CellTiter-Glo), Compound A and exemestane, Example 1; format: cell-based; conditions: 10 nM Δ4A, 5 days, vs DMSO control
Protocol: (§1) Synergy is calculated by comparing a combination's response to those of its single agents, against the drug-with-itself dose-additive reference model.

[2] = test system: MCF7/Aro human breast carcinoma cells; experiment: Δ4A induced MCF7/Aro cell proliferation (CellTiter-Glo), Compound A and letrozole, Example 2; format: cell-based; conditions: 10 nM Δ4A, 5 days, vs DMSO control
Protocol: as §1

Compound	maximum level inhibition of Δ4A-driven cell proliferation, single agent [1]	maximum level inhibition of Δ4A-driven cell proliferation, single agent [2]
C=C1C[C@@H]2[C@H](CC[C@]3(C)C(=O)CC[C@@H]23)[C@@]2(C)C=CC(=O)C=C12 [exemestane]	33%	–
Cc1nc(NC(=O)N2CCC[C@H]2C(N)=O)sc1-c1ccnc(C(C)(C)C(F)(F)F)c1 [Compound A, (S)-Pyrrolidine-1,2-dicarboxylic acid 2-amide 1-({4-methyl-5-[2-(2,2,2-trifluoro-1,1-dimethyl-ethyl)-pyridin-4-yl]-thiazol-2-yl}-amide)]	61%	61%
N#Cc1ccc(C(c2ccc(C#N)cc2)n2cncn2)cc1 [letrozole]	–	53%
